# Patent US6159953A, “Anti-malarial composition and method of use” (Catholic University of America, priority 1992, dated 2000)
# System: P. yoelii
# Test: Anti-malarial activity in P. yoelii-infected mice
# Format: in vivo, P. yoelii in Swiss white mice
# Protocol: FIG. 4 illustrates the effect of 5-fluoro-orotate treatment on blood parasitemia. Mice infected with P. yoelii on day 0 in experiments 1 and 2 were treated with (A) 0.2 mg/kg 5-fluoro-orotate, (B) 1 mg/kg, or (C) 5 mg/kg every 4 hours for three days. Control mice (.largecircle., .circle-solid., respectively), received no drug. Open symbols represent treatment without uridine (experiment 1: .smallcircle., .quadrature., .diamond., Δ), and filled symbols represent animals also treated with uridine (experiment 2: .circle-solid., .box-solid., .diamond-solid., .tangle-solidup.). Animals were treated with 5-fluoro-orotate on days 3 to 6. Animals were also treated with uridine in experiment 2 on days 3 to 9.
# FIG. 5 illustrates the survival rate of mice infected with P. yoelii and treated with 5-fluoro-orotate, alone or in combination with uridine. Mice were treated with (A) 0.2 mg/kg 5-fluoro-orotate, (B) 1 mg/kg, or (C) 5 mg/kg. Control mice received no 5-fluoro-orotate (.largecircle., .circle-solid., respectively). Open symbols represent treatment without uridine (experiment 1: .largecircle., .quadrature., .diamond., Δ), and closed symbols represent animals also receiving uridine (experiment 2: .circle-solid., .box-solid., .diamond-solid., .tangle-solidup.).
# A second in vivo test system can be used to determine if repeated administration of the pyrimidine analogue would have safe anti-malarial activity. In this test system, groups of animals are infected with malaria parasites. At a time when blood parasitemia is reached, the animals are injected with saline alone (control) or with various concentrations of one or more pyrimidine analogues alone or together with one or more rescuing pyrimidine bases or nucleosides at a single concentration, at intervals, over a period of several days. In order to determine the prophylactic effectiveness of the rescuing pyrimidine base or nucleoside, the animals are pretreated with such a base or nucleoside prior to the administration of the pyrimidine analogue. Anti-malarial activity of the treatments is estimated by determining blood parasitemia on the animals at appropriate times. The safety of the treatments is estimated by monitoring animals for weight loss and diarrhea, as these are early symptoms of pyrimidine analogue toxicity [Houghton, J. A., et al., Cancer Res., 39:2406-13 (1979)].
# Swiss white mice (25-30 g) were divided into groups of five. On day 0, each mouse was infected by intraperitoneal injection of 10^5 erythrocytic forms of P. yoelii. Starting on day 3, when the blood parasitemia had reached between 5 and 12%, the mice were injected intraperitoneally every 4 hours for three consecutive days with 200 μl of various formulations. […]
compound,measurement,setting,value
O=C(O)c1[nH]c(=O)[nH]c(=O)c1F [5-fluoro-orotate],time to return of parasitemia after end of treatment,"0.2 mg/kg, treatment stopped day 6",≤ 24 h
same,transient parasitemia after rechallenge,"10^6 P. yoelii parasites, days 2 to 4, 0.2 mg/kg group",less than 0.05%
same,time to resolution of second surge of parasitemia,"low doses (0.2 and 1 mg/kg), no additional drug",≤ 14 days
